PubChem BioAssay (NCI)
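Each compound was tested at five concentrations against cells in 96-well plates for 48 hours. Abbreviation: GI50, concentration required for 50% inhibition of growth. TGI: total growth inhibition.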

Tests used:
Assay in all cases: growth of human tumour cells (NCI), 48 h
M14 melanoma = system: M14 melanoma
OVCAR-4 ovarian = system: OVCAR-4 ovarian
SK-MEL-28 melanoma = system: SK-MEL-28 melanoma
IGROV1 ovarian = system: IGROV1 ovarian
SK-MEL-2 melanoma = system: SK-MEL-2 melanoma
SNB-19 CNS = system: SNB-19 CNS
HL-60(TB) leukemia = system: HL-60(TB) leukemia
BT-549 breast = system: BT-549 breast
HS 578T breast = system: HS 578T breast
T-47D breast = system: T-47D breast

| Compound | TGI (M14 melanoma) | TGI (OVCAR-4 ovarian) | TGI (SK-MEL-28 melanoma) | TGI (IGROV1 ovarian) | TGI (SK-MEL-2 melanoma) | TGI (SNB-19 CNS) | GI50 (HL-60(TB) leukemia) | TGI (HL-60(TB) leukemia) | GI50 (M14 melanoma) | GI50 (OVCAR-4 ovarian) | GI50 (SK-MEL-28 melanoma) | GI50 (IGROV1 ovarian) | GI50 (SK-MEL-2 melanoma) | GI50 (SNB-19 CNS) | GI50 (BT-549 breast) | TGI (BT-549 breast) | GI50 (HS 578T breast) | TGI (HS 578T breast) | TGI (T-47D breast) | GI50 (T-47D breast) |
| --- | --- | --- | --- | --- | --- | --- | --- | --- | --- | --- | --- | --- | --- | --- | --- | --- | --- | --- | --- | --- |
| C[C@]12CC/C(=N\O)C=C1CC[C@@H]1C2CC[C@@]2(C)C1CC[C@@H]2OC1CCCCO1 (some centres undefined) | 35.3 µM | 31.9 µM | 42.4 µM | > 100 µM | 30.4 µM | 33.1 µM |  |  |  |  |  |  |  |  |  |  |  |  |  |  |
| COc1cc(C2SCC(=O)N2c2ncc(C)s2)cc(OC)c1OC (centres undefined) | > 50 µM | > 50 µM | > 50 µM | > 50 µM | > 50 µM | > 50 µM | 28.7 µM | > 50 µM | 21 µM | > 50 µM | > 50 µM | > 50 µM | > 50 µM | 34.5 µM | 37.5 µM | > 50 µM | 44.6 µM | > 50 µM |  |  |
| O=c1ncc(F)cn1C1OC(CO)C(O)C1O (centres undefined) | > 100 µM | > 100 µM | > 46.4 µM | > 80 µM | > 46.5 µM | > 69 µM |  | > 52 µM |  |  |  |  |  |  |  |  |  |  |  |  |
| O=c1[nH]c(=S)[nH]c2c1CN(CCCN1CCOCC1)CN2 | 59.6 µM | > 100 µM | > 100 µM | > 100 µM | 39.8 µM | > 100 µM |  |  |  |  |  |  |  |  |  | > 100 µM |  | > 100 µM | > 100 µM |  |
| CC(C)([NH-])CO.CC(C)([NH-])CO.[Cl][Cd][Cl] | 33.4 µM | 25.8 µM | 30.1 µM | 36.7 µM | 29.8 µM | > 100 µM | 26.9 µM | 55.8 µM | 18 µM | 12.4 µM | 16.5 µM | 19 µM | 15.6 µM | > 100 µM |  |  |  |  |  |  |
| Cn1cnc([N+](=O)[O-])c1Sc1nccn1-c1cccc2ccccc12 | 61 µM | 95.3 µM | 67.8 µM | > 100 µM | 37.5 µM | > 100 µM |  |  |  |  |  |  |  |  |  |  |  |  |  |  |
| C/C(=N\NS(=O)(=O)c1ccc(C)cc1)P(=O)(O)O | > 100 µM | > 100 µM | > 100 µM | > 100 µM | > 100 µM | > 100 µM |  |  |  |  |  |  |  |  |  | > 100 µM |  | > 100 µM | > 100 µM |  |
| Cc1ccc(S(=O)(=O)NC2(C=O)CCCC3CCCCC32)cc1 (centres undefined) | > 100 µM | > 100 µM | > 100 µM | > 100 µM | > 100 µM | > 100 µM |  | > 100 µM |  |  |  |  |  |  |  |  |  |  |  |  |
| C/C(CC(=O)Nc1ccc(C)c(C)c1)=N\NC(N)=O | > 100 µM |  | > 100 µM | > 100 µM | > 100 µM |  |  | > 100 µM |  |  |  |  |  |  |  |  |  |  |  |  |
| O=C(c1ccccc1)C1OC1c1ccc([N+](=O)[O-])cc1 (centres undefined) | 12.9 µM | > 100 µM | > 100 µM | 11.6 µM | 34.9 µM | > 100 µM |  |  | 2.98 µM | 4.57 µM | 24.8 µM | 3.01 µM | 5.88 µM | 26.2 µM | 5.47 µM | 44.3 µM | 3.33 µM | 35.2 µM | 71.1 µM | 3.9 µM |
| O=[P+](O)c1ccsc1 | > 100 µM |  | > 100 µM | > 100 µM |  |  |  | > 100 µM |  |  |  |  |  |  |  |  |  |  |  |  |
| CC(Nc1ccc(S(=O)(=O)N=C(N)N)cc1)c1c2ccccc2nc2ccccc12 (centres undefined) | > 100 µM | 31.3 µM | > 100 µM | > 100 µM | 61.9 µM | > 100 µM |  | 39.2 µM |  |  |  |  |  |  |  |  |  |  |  |  |
| COC(=O)C(C(=O)C(=O)Nc1ccc([N+](=O)[O-])cc1[N+](=O)[O-])c1nc2ccc(Cl)cc2[nH]c1=O (centres undefined) | > 100 µM | > 100 µM | > 100 µM | > 100 µM | > 100 µM | > 100 µM |  | > 100 µM |  |  |  |  |  |  |  |  |  |  |  |  |
| C#CCSc1cc(Cl)c(C)cc1S(=O)(=O)Nc1nc2ccccc2o1 | 67.9 µM | > 100 µM | > 100 µM | > 100 µM | 43.6 µM | > 100 µM |  |  | 32.1 µM | 51 µM | 54.7 µM | 34.8 µM | 21.6 µM | 44.5 µM | 27.8 µM | 65.5 µM | 44.2 µM | > 100 µM | > 100 µM | 44.3 µM |
| O=c1c(Br)cc2nc3ccccc3sc-2c1Br | > 100 µM | > 70.9 µM | > 100 µM | > 100 µM | > 100 µM | > 100 µM |  | 38.9 µM |  |  |  |  |  |  |  |  |  |  |  |  |
| CC(=O)OC(C)(C)/C(C)=C/C(=O)O[C@H]1C(=O)O[C@@H]2C[C@H]3[C@H](C)C(=O)C(O[C@@H]4O[C@H](CO)[C@@H](O)[C@H](O)[C@H]4O)=C[C@]3(C)[C@H]3[C@@H](O)[C@H](O)[C@@]4(C(=O)O)OC[C@]32[C@@H]14 | > 100 µM | > 100 µM | > 100 µM | > 100 µM | > 100 µM | > 100 µM | 48.2 µM | > 100 µM | > 100 µM | > 100 µM |  | > 100 µM | > 100 µM | > 100 µM |  |  | > 100 µM | > 100 µM | > 100 µM | > 100 µM |
| O=C(O)CCC(N=Cc1nc(-c2ccccc2)oc1O)C(=O)O (centres undefined) | > 100 µM | > 100 µM | > 100 µM | > 100 µM | > 100 µM | > 100 µM |  |  |  |  |  |  |  |  |  |  |  |  |  |  |
| CCOC(=O)c1cc2c(cc1Cl)SC(N(c1ccc(OC)cc1)S(=O)(=O)c1ccc(Cl)cc1)=NS2(=O)=O | > 100 µM | > 100 µM | 59.9 µM | > 100 µM | > 100 µM | > 100 µM | 36.6 µM | > 100 µM | 38.7 µM | 26.1 µM | 20.8 µM | 49.6 µM | 24.7 µM | 36.8 µM |  |  | 46.7 µM | > 100 µM | 36.1 µM | 12.1 µM |
| O=C(COc1cc(O)c2c(=O)cc(-c3ccccc3)oc2c1)Nc1ccccc1C(F)(F)F | > 100 µM | 5.94 µM |  | 15.9 µM | 38 µM | 21.7 µM | > 100 µM | > 100 µM | 27.6 µM | 2.45 µM |  | 3.61 µM | 15.1 µM | 4.17 µM | 5.19 µM | 38.9 µM | 2.6 µM | 7.79 µM |  |  |
